Data as given in ChEMBL document CHEMBL1148828, “Deoxycholic acid-derived tetraoxane antimalarials and antiproliferatives(1)” (J Med Chem, 2007).
Calls of active or inactive are those of the source. No cut-off for these calls is given here.

Experiments:
[1] = system: HCT-116; assay: Antiproliferative activity against human HCT116 cells after 48 hrs; type: functional; details: HCT-116, 48 h; for CC50: read-out: LC50 (the source's name)
[2] = system: Plasmodium falciparum; assay: Antimalarial activity against Plasmodium falciparum W2; type: functional, organism-based
[3] = system: NCI; assay: Growth inhibition of human NCI DTP 60 cells; type: functional
[4] = system: Plasmodium berghei; assay: Antimalarial activity as survivors after 31 days in Plasmodium berghei KBG173 infected CD1 mice (Mus musculus) at 10 mg/kg/day; type: functional, organism-based; details: KBG 173
[5] = system: Mus musculus; assay: Survival of Plasmodium berghei KBG 173 infected CD1 mice (Mus musculus) at 80 mg/kg/day; type: ADME, organism-based; details: in vivo
[6] = system: LOX IMVI; assay: Antiproliferative activity against human LOX IMVI cells after 48 hrs; type: functional
[7] = system: Plasmodium falciparum; assay: Antimalarial activity against Plasmodium falciparum TM91C235; type: functional, organism-based
[8] = system: Plasmodium falciparum; assay: Antimalarial activity against Plasmodium falciparum D6; type: functional, organism-based
[9] = system: SF-268; assay: Antiproliferative activity against human SF268 cells after 48 hrs; type: functional; details: SF-268, 48 h
[10] = (§1) Metabolic stability in human liver microsomes; type: ADME, Microsome; details: liver microsomes
[11] = system: Plasmodium berghei; assay: Antimalarial activity as survivors after 31 days in Plasmodium berghei KBG173 infected CD1 mice (Mus musculus) at 320 mg/kg/day; type: functional, organism-based; details: KBG 173
[12] = system: Mus musculus; assay: Survival of Plasmodium berghei KBG 173 infected CD1 mice (Mus musculus) at 320 mg/kg/day; type: ADME, organism-based; details: in vivo
[13] = system: Mus musculus; assay: Survival of Plasmodium berghei KBG 173 infected CD1 mice (Mus musculus) at 10 mg/kg/day; type: ADME, organism-based; details: in vivo
[14] = system: Mus musculus; assay: Survival of Plasmodium berghei KBG 173 infected CD1 mice (Mus musculus) at 40 mg/kg/day; type: ADME, organism-based; details: in vivo
[15] = Metabolic stability in mouse liver microsomes; type: ADME, Microsome; details: liver microsomes
[16] = species on record: Mus musculus; assay: (§2) Toxicity in Plasmodium berghei KBG 173 infected CD1 mice (Mus musculus); type: organism-based; details: mouse, in vivo
[17] = as §2; type: organism-based; details: CD1, mouse, in vivo
[18] = system: HOP-62; assay: Antiproliferative activity against human HOP62 cells after 48 hrs; type: functional; details: HOP-62, 48 h
[19] = system: OVCAR-3; assay: Antiproliferative activity against human OVCAR-3 cells after 48 hrs; type: functional; details: OVCAR-3, 48 h
[20] = system: MDA-MB-435; assay: Antiproliferative activity against human MDA-MB-435 cells after 48 hrs; type: functional
[21] = system: Mus musculus; assay: Survival of Plasmodium berghei KBG 173 infected CD1 mice (Mus musculus) at 20 mg/kg/day; type: ADME, organism-based; details: in vivo
[22] = system: CCRF-CEM; assay: Antiproliferative activity against human CCRF-CEM cells after 48 hrs; type: functional
[23] = system: NCI-H322M; assay: Antiproliferative activity against human NCI-H322M cells after 48 hrs; type: functional
[24] = system: Liver microsomes; assay: as §1; type: ADME, Microsome; details: microsomes
[25] = system: CAKI-1; assay: Antiproliferative activity against human CAKI1 cells after 48 hrs; type: functional; details: CAKI-1, 48 h
[26] = system: M14; assay: Antiproliferative activity against human M14 cells after 48 hrs; type: functional; details: M14, 48 h, read-out: LC50 (the source's name)
[27] = system: HCC 2998; assay: Antiproliferative activity against human HCC2998 cells after 48 hrs; type: functional; details: HCC 2998, 48 h
[28] = system: U-251; assay: Antiproliferative activity against human U251 cells after 48 hrs; type: functional; details: U-251, 48 h
[29] = system: Mus musculus; assay: Survival of Plasmodium berghei KBG 173 infected CD1 mice (Mus musculus) at 160 mg/kg/day; type: ADME, organism-based; details: in vivo
[30] = system: HCT-15; assay: Antiproliferative activity against human HCT15 cells after 48 hrs; type: functional; details: HCT-15, 48 h
[31] = system: T47D; assay: Antiproliferative activity against human T47D cells after 48 hrs; type: functional
[32] = system: 786-0; assay: Antiproliferative activity against human 786-0 cells after 48 hrs; type: functional; details: Homo sapiens, 786-0, 48 h
[33] = system: COLO 205; assay: Antiproliferative activity against human COLO205 cells after 48 hrs; type: functional
[34] = Plasmodium falciparum, TM91C235
[35] = read-out: LC50 (the source's name)

`CC(=O)O[C@H]1C[C@H]2[C@@H]([C@H](OC(C)=O)C[C@@H]3CC4(CC[C@@]32C)OOC2(CCCCC2)OO4)[C@@H]2CC[C@H]([C@H](C)CCC(=O)NCCN(C)C)[C@@]12C` gave a GI50 [1] of 83.1 nM, a TGI [1] of 1690 nM and a CC50 [1] of 4620 nM. For the same compound, the IC50 ([2]; Plasmodium falciparum, W2) was 14.5 nM, the IC90 ([2]; Plasmodium falciparum, W2) was 45.1 nM and the GI50 ([3]; Homo sapiens, NCI) was under 10 nM. The Activity [4] was “inactive”, the Survival [5] was 25 days and the GI50 ([6]; Homo sapiens, LOX IMVI, 48 h) was under 10 nM. For the same compound, the LC50 (concentration killing 50% of cells) ([6]; Homo sapiens, LOX IMVI, 48 h) was 68.8 nM, the TGI ([6]; Homo sapiens, LOX IMVI, 48 h) was 22.4 nM and the IC50 [7, 34] was 19.6 nM. It also gave an IC90 [7, 34] of 37.9 nM, an IC50 ([8]; Plasmodium falciparum, D6) of 28.2 nM and an IC90 ([8]; Plasmodium falciparum, D6) of 45.1 nM. The GI50 [9] was 785 nM, the TGI [9] was 2250 nM and the CC50 [9, 35] was 5350 nM. The half-life [10] was 40 min, the Activity [11] was “Active” and the Survival [12] was 31 days. The Survival [13] was 8 days, the Survival [14] was 21 days and the half-life [15] was 40 min. For the same compound, the MCD [16] was “<= 40 mg/kg/day”, the MTD [17] was over 960 mg/kg and the GI50 [18] was under 10 nM. It also gave an LC50 [18] of 83 nM and a TGI [18] of 16.6 nM.
For `CC(=O)O[C@H]1C[C@H]2[C@@H]([C@H](OC(C)=O)C[C@@H]3CC4(CC[C@@]32C)OOC2(CCC(C)CC2)OO4)[C@@H]2CC[C@H]([C@H](C)CCC(=O)NCCN(C)C)[C@@]12C` (stereo in doubt; 22), the GI50 [19] was 1190 nM, the TGI [19] was 2470 nM and the CC50 [19, 35] was 5110 nM. The GI50 [20] was 1530 nM, the TGI [20] was 2910 nM and the CC50 ([20]; Homo sapiens, MDA-MB-435, 48 h, read-out: LC50 (the source's name)) was 5520 nM. It also gave an IC50 [2] of 16.7 nM, an IC90 [2] of 24.8 nM and a Survival [21] of 9 days. For the same compound, the GI50 [22] was 258 nM, the TGI [22] was 725 nM and the GI50 [3] was 180 nM. For the same compound, the GI50 [6] was 183 nM, the IC50 [7] was 12.2 nM and the IC90 [7] was 18.5 nM. It also gave an IC50 [8] of 18.6 nM, an IC90 [8] of 27.8 nM and a GI50 [23] of 1460 nM. It also gave a TGI [23] of 2790 nM, a CC50 [23, 35] of 5340 nM and a t1/2 [24] of 42 min. The GI50 [25] was 1370 nM, the TGI [25] was 2690 nM and the CC50 [25, 35] was 5290 nM. For the same compound, the Survival [14] was 19 days, the half-life [15] was 77 min and the MCD [16] was 40 mg/kg/day.
`CC(=O)O[C@H]1C[C@H]2[C@@H](CC[C@@H]3CC4(CC[C@@]32C)OOC2(CCC(C)CC2)OO4)[C@@H]2CC[C@H]([C@H](C)CCC(=O)NCCN(C)C)[C@@]12C` (stereo in doubt; 16) showed a CC50 [26] of 460 nM, a GI50 [27] of 77 nM and a TGI [27] of 210 nM. It also gave a CC50 [27, 35] of 980 nM, a GI50 [1] of 9 nM and a TGI [1] of 21 nM. The CC50 [1] was 47 nM, the IC50 [2] was 16.8 nM and the IC90 [2] was 19.8 nM. The GI50 [28] was 26 nM, the TGI [28] was 87 nM and the GI [22] was 0.056 µM. For the same compound, the LC50 (concentration killing 50% of cells) ([22]; Homo sapiens, CCRF-CEM, 48 h) was 500 nM, the TGI ([22]; Homo sapiens, CCRF-CEM, 48 h) was 170 nM and the Survival [29] was 29 days. It also gave an LC50 (concentration killing 50% of cells) [6] of 22 nM, a GI50 ([6]; Homo sapiens, LOX IMVI, 48 h) of under 5 nM and a TGI ([6]; Homo sapiens, LOX IMVI, 48 h) of 7.4 nM. It also gave an IC50 [7] of 14.7 nM, an IC90 [7] of 24.2 nM and a GI50 [30] of 94 nM. For the same compound, the IC50 [8] was 12.8 nM, the IC90 [8] was 18.7 nM and the GI50 [31] was 130 nM. It also gave a TGI [31] of 410 nM, a half-life [10] of 110 min and a Survival [14] of 9 days. The GI50 [32] was 60 nM, the TGI [32] was 150 nM and the CC50 [32, 35] was 390 nM. It also gave a half-life [15] of over 120 min, a GI [33] of 0.083 µM and a TGI ([33]; Homo sapiens, COLO 205, 48 h) of 20 nM. The CC50 ([33]; Homo sapiens, COLO 205, 48 h, read-out: LC50 (the source's name)) was 490 nM, the GI50 [18] was 54 nM and the LC50 [18] was 1160 nM. For the same compound, the TGI [18] was 230 nM.
